What was measured:
[1] = Body weight loss in C57 lean mice after a single s.c. dose; type: in vivo, C57BL/6 mice; details: 30 nmol/kg s.c. once
Description: Method: 10 week old male C57BL/6 mice were injected subcutaneously with protein once on Day1. Body weight was measured daily and five animals were used for each treatment group. Body weight was monitored for each individual animal. % BW loss=100*(BW on Day n-BW on Day 1)/(BW on Day 1). […] The area under the curve for body weight loss (%) from 0 until 8 days (AUC ΔBW 0-8d) was calculated.

db/db mice = assay: Non-fasting glucose in db/db mice after a single s.c. dose; type: in vivo
Description: Method: 10 weeks old male db/db mice were injected subcutaneously with GLP-1 polypeptide conjugate once. […] Delta blood glucose is glucose subtracted by baseline level. […] The area under the curve for delta blood glucose from 0 until 192 hours (AUCΔ8G 0-192 h) was calculated.

human serum albumin = human serum albumin (Homo sapiens, UniProt P02768); assay: Human serum albumin binding by surface plasmon resonance (Biacore 8K); details: human serum albumin bound to CM5 chip
Chain of human serum albumin (P02768 25-609): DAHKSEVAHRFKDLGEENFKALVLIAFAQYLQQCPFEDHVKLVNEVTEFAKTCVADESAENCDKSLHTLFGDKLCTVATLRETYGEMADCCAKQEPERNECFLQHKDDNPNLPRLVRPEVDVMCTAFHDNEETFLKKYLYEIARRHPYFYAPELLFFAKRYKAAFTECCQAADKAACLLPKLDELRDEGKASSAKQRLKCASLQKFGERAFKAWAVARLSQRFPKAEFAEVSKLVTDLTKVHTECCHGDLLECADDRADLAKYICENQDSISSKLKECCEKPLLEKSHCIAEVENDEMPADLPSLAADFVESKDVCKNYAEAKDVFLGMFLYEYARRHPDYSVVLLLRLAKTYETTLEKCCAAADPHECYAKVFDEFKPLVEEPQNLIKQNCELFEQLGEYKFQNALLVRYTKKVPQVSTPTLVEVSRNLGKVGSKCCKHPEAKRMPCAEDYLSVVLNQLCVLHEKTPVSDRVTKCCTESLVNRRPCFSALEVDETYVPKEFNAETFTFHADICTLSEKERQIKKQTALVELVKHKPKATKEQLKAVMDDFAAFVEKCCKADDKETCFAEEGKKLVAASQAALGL
Description: Method: Binding of molecules to serum albumin was characterized by surface plasmon resonance in a Biacore 8K instrument. Serum albumin from different species was covalently bound to CM5 sensor chips surface until 4000 RU was reached. The chip was blocked by 1M ethanolamine with flowrate of 10 μL/min for 420 s. Each molecule sample was diluted and injected at a flow rate of 30 μL/min to allow for binding to chip-bound albumin for 120 s and for dissociation for 300 s. Binding buffer without molecule was sent over the chip at the flow rate of 20 seconds to allow spontaneous dissociation of bound molecule for 30 seconds.

GLP-1 receptor = GLP-1 receptor (Homo sapiens, UniProt P43220); details: J. Med. Chem. 2015, 58, 7370-7380; cited from earlier work
Chain of GLP-1 receptor (P43220 24-463, species assumed): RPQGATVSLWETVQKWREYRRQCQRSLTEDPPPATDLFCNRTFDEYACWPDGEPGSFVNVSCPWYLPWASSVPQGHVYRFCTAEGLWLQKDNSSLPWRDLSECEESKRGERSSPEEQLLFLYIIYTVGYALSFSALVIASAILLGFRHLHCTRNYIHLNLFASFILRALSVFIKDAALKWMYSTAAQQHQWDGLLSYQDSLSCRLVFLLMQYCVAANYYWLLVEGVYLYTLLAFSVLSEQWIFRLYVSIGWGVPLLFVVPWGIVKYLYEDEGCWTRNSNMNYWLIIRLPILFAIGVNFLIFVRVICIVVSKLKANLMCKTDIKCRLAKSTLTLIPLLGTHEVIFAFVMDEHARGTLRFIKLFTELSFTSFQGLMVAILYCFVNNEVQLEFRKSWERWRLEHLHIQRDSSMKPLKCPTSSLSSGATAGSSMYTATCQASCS

Semaglutide [reference compound]
AUC ΔBW 0-8 d ([1]; Study 1 (FIG. 1A)): −9.3 day*%
AUC ΔBW 0-8 d ([1]; Study 2 (FIG. 1B)): −13.2 day*%
AUCΔBG 0-192 h (db/db mice; 3 nmol/kg s.c. once): -317.0 mmol·h/L
AUCΔBG 0-192 h (db/db mice; 10 nmol/kg s.c. once): -583.4 mmol·h/L
AUCΔBG 0-192 h (db/db mice; 30 nmol/kg s.c. once): -527.1 mmol·h/L
Rmax (human serum albumin): 55.2 RU
Loss in GLP-1 receptor binding in presence of human serum albumin relative to unconjugated counterpart (GLP-1 receptor): 939 fold
